One experiment relates to NUGC-3. As to the kind of experiment: Antiproliferative activity against human NUGC3 cells by SRB assay. It is filed as functional. (In SRB staining, fixed cells bind dye roughly in proportion to their protein.)
A further experiment relates to ACHN. Briefly: Antiproliferative activity against human ACHN cells by SRB assay. It is filed as functional.
For the next experiment, the system named is PC-3. Briefly: Antiproliferative activity against human PC3 cells by SRB assay. It is filed as functional.
A further experiment concerns NCI-H23. Briefly: Antiproliferative activity against human NCI-H23 cells by SRB assay. The class given is functional.
Experiment [1] in a line: Inhibition of NFkappaB expressed in RAW264.7 cells coexpressing NPT assessed as inhibition of LPS-induced SEAP activity incubated for 2 hrs prior to LPS-induction measured after 16 hrs by reporter gene assay. The class given is cell-based.
A short description of experiment [2]: Inhibition of NFkappaB expressed in THP1 cells assessed as inhibition of LPS-induced SEAP activity incubated for 2 hrs prior to LPS-induction measured after 16 hrs by reporter gene assay. The class given is cell-based. Conditions: THP-1. (In general: A reporter such as luciferase makes a cellular process visible.)
For another experiment, the system named is HCT-15. As to the kind of experiment: Antiproliferative activity against human HCT15 cells by SRB assay. The class given is functional.
A further experiment concerns MDA-MB-231. Briefly: Antiproliferative activity against human MDA-MB-231 cells by SRB assay. The class given is functional.

The structures appear in SMILES notation.

Results on 15 molecules are retold here after ChEMBL document CHEMBL2046421, “Study on anti-proliferative effect of benzoxathiole derivatives through inactivation of NF-κB in human cancer cells” (Bioorg Med Chem Lett, 2012).

The GI50 is the concentration giving 50% growth inhibition. Read a high GI50 as less potent growth inhibition. What is called IC50 is the concentration at which inhibition is half-maximal. In the case of `CC(C)C1CC(=O)c2s/c(=N/C3CCCCC3)oc2C1` (stereo not drawn), the concentration for 50% growth inhibition (GI50) in the experiment on NUGC-3 was 2.71 µM; with ACHN, 6.7 µM; in the experiment with PC-3, 5.16 µM; with NCI-H23 it was 7.08 µM; in the experiment on HCT-15 it was 3.53 µM; with MDA-MB-231, 5.9 µM. Also, the IC50 in experiment [1] and in experiment [2] was 13.1 µM in each case.

For the molecule `CC1(C)CC(=O)c2s/c(=N/c3c(Cl)cc(Cl)cc3Cl)oc2C1`, the 50% growth inhibitory concentration (GI50) in the experiment on NUGC-3, in the experiment on ACHN, in the experiment on PC-3, in the experiment with NCI-H23, in the experiment with HCT-15 and in the experiment with MDA-MB-231 was more than 30 µM each time. In addition, the half-maximal inhibitory concentration (IC50) in experiment [1] and in experiment [2] was more than 30 µM in each case.

For `CC1(C)CC(=O)c2s/c(=N/c3ccc(F)cc3)oc2C1`, the GI50 with NUGC-3 came to 1.08 µM; in the experiment with ACHN it was 3.74 µM; with PC-3, 2.45 µM; in the experiment on NCI-H23 it was 3.36 µM; in the experiment on HCT-15, 2.39 µM; in the experiment with MDA-MB-231 it was 3.2 µM. In addition, the IC50 in experiment [1] and in experiment [2] was 10.6 µM each time.

On to `CC1(C)CC(=O)c2s/c(=N/C3CCCCC3)oc2C1`, for which the GI50 came to 11.5 µM in the experiment on NUGC-3; 11.3 µM in the experiment on ACHN; 12.7 µM in the experiment on PC-3; 12.5 µM in the experiment with NCI-H23; 12.2 µM with HCT-15; 13.1 µM with MDA-MB-231. Moreover, the IC50 in experiment [1] and in experiment [2] was 12.5 µM in each case.

Turning to `CC(C)C1CC(=O)c2s/c(=N/c3ccccc3)oc2C1` (stereo not drawn), the GI50 came out at 1.22 µM in the experiment on NUGC-3; 3.08 µM with ACHN; 2.19 µM in the experiment with PC-3; 2.28 µM in the experiment with NCI-H23; 1.15 µM in the experiment on HCT-15; 2.48 µM in the experiment with MDA-MB-231. The IC50 in experiment [1] and in experiment [2] was 4.9 µM in each case.

Take `CC1CC(=O)c2s/c(=N/c3ccccc3)oc2C1` (stereo not drawn): the GI50 in the experiment with NUGC-3 is 1.89 µM; with ACHN, 2.98 µM; with PC-3 it was 2.63 µM; in the experiment with NCI-H23 it was 2.72 µM; in the experiment with HCT-15, 2.07 µM; in the experiment on MDA-MB-231, 2.31 µM. Besides, the concentration for half-maximal inhibition (IC50) in experiment [1] and in experiment [2] was 6.7 µM each time.

Take `CC(C)C1CC(=O)c2s/c(=N/c3c(Cl)cc(Cl)cc3Cl)oc2C1` (stereo not drawn): the GI50 with NUGC-3, with ACHN, in the experiment with PC-3, with NCI-H23, in the experiment on HCT-15 and with MDA-MB-231 was more than 30 µM throughout. Besides, the IC50 in experiment [1] and in experiment [2] was more than 30 µM throughout.

Consider `CCCc1o/c(=N\c2ccccc2)sc1C(C)=O`, for which the 50% growth inhibitory concentration (GI50) in the experiment with NUGC-3, in the experiment on ACHN, in the experiment on PC-3, in the experiment on NCI-H23, with HCT-15 and with MDA-MB-231 was more than 30 µM in each case. Moreover, the IC50 in experiment [1] and in experiment [2] was more than 30 µM in each case.

With `CC1(C)CC(=O)c2o/c(=N/C3CCCCC3)oc2C1`, the concentration for 50% growth inhibition (GI50) in the experiment with NUGC-3, with ACHN, in the experiment with PC-3, with NCI-H23, in the experiment on HCT-15 and with MDA-MB-231 was more than 30 µM in each case. Besides, the 50% inhibitory concentration (IC50) in experiment [1] and in experiment [2] was more than 30 µM throughout.

As to `CC1CC(=O)c2s/c(=N/c3c(Cl)cc(Cl)cc3Cl)oc2C1` (stereo not drawn), the GI50 with NUGC-3, with ACHN, with PC-3, with NCI-H23, in the experiment on HCT-15 and in the experiment on MDA-MB-231 was more than 30 µM throughout. Further, the 50% inhibitory concentration (IC50) in experiment [1] and in experiment [2] was more than 30 µM throughout.

On to `CC1(C)CC(=O)c2s/c(=N/c3ccc(Cl)cc3)oc2C1`, for which the GI50 with NUGC-3 was 2.94 µM; in the experiment on ACHN, 9.81 µM; with PC-3 it was 4.26 µM; with NCI-H23 it was 11.6 µM; in the experiment on HCT-15, 3.79 µM; with MDA-MB-231 it was 6.38 µM. For the same molecule, the IC50 in experiment [1] and in experiment [2] was 7.5 µM in each case.

Take `COc1cccc2c1C(=O)c1c(O)c3c(c(O)c1C2=O)C[C@@](O)(C(=O)CO)C[C@@H]3O[C@H]1C[C@H](N)[C@H](O)[C@H](C)O1` [DOXORUBICIN]: the 50% growth inhibitory concentration (GI50) in the experiment with NUGC-3 came to 1 µM; with ACHN, 1.63 µM; in the experiment with PC-3 it was 1.65 µM; with NCI-H23, 1.66 µM; in the experiment with HCT-15, 1.34 µM; in the experiment on MDA-MB-231, 1.79 µM.

Take `CC1(C)CC(=O)c2s/c(=N/c3ccccc3)oc2C1`: the GI50 in the experiment on NUGC-3 came to 5.46 µM; in the experiment with ACHN, 8.98 µM; in the experiment with PC-3, 7.4 µM; in the experiment on NCI-H23, 7.08 µM; in the experiment with HCT-15, 8.09 µM; in the experiment on MDA-MB-231, 5.88 µM. Further, the IC50 in experiment [1] and in experiment [2] was 6.2 µM in each case.

With `CC1CC(=O)c2s/c(=N/c3ccc(Cl)cc3)oc2C1` (stereo not drawn), the GI50 in the experiment with NUGC-3 came to 15.9 µM; in the experiment with ACHN, 12.3 µM; in the experiment with PC-3, 16.4 µM; in the experiment with NCI-H23, 13.5 µM; in the experiment with HCT-15 it was 12.2 µM; with MDA-MB-231 it was 14.3 µM. Moreover, the IC50 in experiment [1] and in experiment [2] was 19.5 µM throughout.

`CC(C)C1CC(=O)c2s/c(=N/c3ccc(F)cc3)oc2C1` (stereo not drawn): the 50% growth inhibitory concentration (GI50) in the experiment with NUGC-3 stood at 0.67 µM; in the experiment on ACHN it was 3.67 µM; in the experiment with PC-3, 2.76 µM; in the experiment with NCI-H23 it was 3.65 µM; with HCT-15, 2.99 µM; in the experiment on MDA-MB-231, 2.69 µM. Moreover, the IC50 in experiment [1] and in experiment [2] was 7.9 µM in each case.
